According to PubChem BioAssay (NCI):
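96-well plates; 48 h exposure; 5 concentrations. Endpoints by linear interpolation between flanking doses. Not reached: highest tested concentration assigned. GI50 marks 50% less growth. Definition used: TGI = concentration required for complete inhibition of growth.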

How the values were obtained:
Assay in all cases: growth of human tumour cells (NCI), 48 h
[1] = tested on: 786-0 renal
[2] = tested on: A498 renal
[3] = tested on: A549 NSCLC
[4] = tested on: ACHN renal
[5] = tested on: BT-549 breast
[6] = tested on: CAKI-1 renal
[7] = tested on: CCRF-CEM leukemia
[8] = tested on: COLO 205 colon
[9] = tested on: DU-145 prostate
[10] = tested on: EKVX NSCLC
[11] = tested on: HCC-2998 colon
[12] = tested on: HCT-116 colon
[13] = tested on: HCT-15 colon
[14] = tested on: HL-60(TB) leukemia
[15] = tested on: HOP-62 NSCLC
[16] = tested on: HOP-92 NSCLC
[17] = tested on: HS 578T breast
[18] = tested on: HT29 colon
[19] = tested on: IGROV1 ovarian
[20] = tested on: K-562 leukemia
[21] = tested on: KM12 colon
[22] = tested on: LOX IMVI melanoma
[23] = tested on: M14 melanoma
[24] = tested on: MALME-3M melanoma
[25] = tested on: MCF7 breast
[26] = tested on: MDA-MB-231 breast
[27] = tested on: MDA-MB-435
[28] = tested on: MOLT-4 leukemia
[29] = tested on: NCI-H226 lung
[30] = tested on: NCI-H23 lung
[31] = tested on: NCI-H460 lung
[32] = tested on: NCI-H522 lung
[33] = tested on: NCI/ADR-RES ovarian
[34] = tested on: OVCAR-3 ovarian
[35] = tested on: OVCAR-4 ovarian
[36] = tested on: OVCAR-5 ovarian
[37] = tested on: OVCAR-8 ovarian
[38] = tested on: PC-3 prostate
[39] = tested on: RPMI-8226 leukemia
[40] = tested on: RXF 393 renal
[41] = tested on: SF-268 CNS
[42] = tested on: SF-295 CNS
[43] = tested on: SF-539 CNS
[44] = tested on: SK-MEL-2 melanoma
[45] = tested on: SK-MEL-28 melanoma
[46] = tested on: SK-MEL-5 melanoma
[47] = tested on: SK-OV-3 ovarian
[48] = tested on: SN12C renal
[49] = tested on: SNB-75 CNS
[50] = tested on: SR leukemia
[51] = tested on: SW-620 colon
[52] = tested on: T-47D breast
[53] = tested on: TK-10 renal
[54] = tested on: U251 CNS
[55] = tested on: UACC-257 melanoma
[56] = tested on: UACC-62 melanoma
[57] = tested on: UO-31 renal

C=C1C(=O)O[C@H]2[C@H]1CC/C(COC(=O)NCCCCCCCCNC(=O)OC/C1=C/CC[C@@]3(C)O[C@H]3[C@H]3OC(=O)C(=C)[C@@H]3CC1)=C\CC[C@@]1(C)O[C@@H]21
GI50 [1]: 244 nM | TGI [1]: 646 nM | GI50 [2]: 1690 nM | TGI [2]: 3140 nM | GI50 [3]: 1700 nM | TGI [3]: 3510 nM | GI50 [4]: 258 nM | TGI [4]: 662 nM | GI50 [5]: 257 nM | TGI [5]: 748 nM | GI50 [6]: 657 nM | TGI [6]: 2020 nM | GI50 [7]: 255 nM | TGI [7]: 837 nM | GI50 [8]: 300 nM | TGI [8]: 756 nM | GI50 [9]: 1100 nM | TGI [9]: 2300 nM | GI50 [10]: 1190 nM | TGI [10]: 2440 nM | GI50 [11]: 1200 nM | TGI [11]: 2520 nM | GI50 [12]: 198 nM | TGI [12]: 407 nM | GI50 [13]: 346 nM | TGI [13]: 1410 nM | GI50 [14]: 268 nM | TGI [14]: 869 nM | GI50 [15]: 1530 nM | TGI [15]: 3490 nM | GI50 [16]: 177 nM | TGI [16]: 551 nM | GI50 [17]: 1170 nM | TGI [17]: 8230 nM | GI50 [18]: 228 nM | TGI [18]: 554 nM | GI50 [19]: 1010 nM | TGI [19]: 2610 nM | GI50 [20]: 349 nM | TGI [20]: 1370 nM | GI50 [21]: 1290 nM | TGI [21]: 3110 nM | GI50 [22]: 178 nM | TGI [22]: 368 nM | GI50 [23]: 272 nM | TGI [23]: 800 nM | GI50 [24]: 199 nM | TGI [24]: 430 nM | GI50 [25]: 221 nM | TGI [25]: 833 nM | GI50 [26]: 200 nM | TGI [26]: 458 nM | GI50 [27]: 241 nM | TGI [27]: 686 nM | GI50 [28]: 330 nM | TGI [28]: 1180 nM | GI50 [29]: 1810 nM | TGI [29]: 4390 nM | GI50 [30]: 485 nM | TGI [30]: 1740 nM | GI50 [31]: 1750 nM | TGI [31]: 3980 nM | GI50 [32]: 186 nM | TGI [32]: 407 nM | GI50 [33]: 3910 nM | TGI [33]: 18700 nM | GI50 [34]: 330 nM | TGI [34]: 1060 nM | GI50 [35]: 521 nM | TGI [35]: 1860 nM | GI50 [36]: 269 nM | TGI [36]: 912 nM | GI50 [37]: 326 nM | TGI [37]: 1240 nM | GI50 [38]: 385 nM | TGI [38]: 1630 nM | GI50 [39]: 250 nM | TGI [39]: 745 nM | GI50 [40]: 162 nM | TGI [40]: 322 nM | GI50 [41]: 999 nM | TGI [41]: 2690 nM | GI50 [42]: 1950 nM | TGI [42]: 4820 nM | GI50 [43]: 235 nM | TGI [43]: 599 nM | GI50 [44]: 601 nM | TGI [44]: 2800 nM | GI50 [45]: 206 nM | TGI [45]: 511 nM | GI50 [46]: 1210 nM | TGI [46]: 2590 nM | GI50 [47]: 3640 nM | TGI [47]: 12300 nM | GI50 [48]: 264 nM | TGI [48]: 849 nM | GI50 [49]: 1250 nM | TGI [49]: 3500 nM | GI50 [50]: 317 nM | TGI [50]: 1510 nM | GI50 [51]: 239 nM | TGI [51]: 686 nM | GI50 [52]: 323 nM | TGI [52]: 915 nM | GI50 [53]: 284 nM | TGI [53]: 855 nM | GI50 [54]: 578 nM | TGI [54]: 2000 nM | GI50 [55]: 848 nM | TGI [55]: 2820 nM | GI50 [56]: 197 nM | TGI [56]: 488 nM | GI50 [57]: 880 nM | TGI [57]: 2170 nM
